Source: PMC11576293, “New series of 4,6-diaryl pyrimidines: facile synthesis and antiproliferative activity as dual EGFR/VEGFR-2 inhibitors” (Frontiers in Chemistry, 2024)

Columns and labels:
[1] = Cell viability assay (MTT) on normal cells; format: cell-based; settings: human, MCF-10A normal mammary gland epithelial cells, 4 days incubation
Method: (§1) This experiment examines the impact of the newly developed compounds 9–29 on normal cell lines to assess their safety level. The vitality of the investigated compounds was assessed using the MCF-10 A cell line, a normal human mammary gland epithelial cell line. Following 4 days of incubation on MCF-10 A cells with each examined compound at a concentration of 50 μM, the vitality of the cells was assessed using the MTT test ([Mahmoud et al., 2022]; [Mekheimer et al., 2022]).
as §1, with “The viability” for “The vitality”, “of 9–29” for “of the investigated compounds”, “2022]). Refer to Supplementary Material A1 for more details. […]” for “2022]).”
4.2. Biological evaluation
4.2.1. Cytotoxic activity using MTT Assay and evaluation of IC50
MTT assay was carried out to study the effect of compounds on mammary epithelial cells (MCF-10A). The medium in which cells were propagated contained Dulbecco's modified Eagle's medium (DMEM)/ Ham's F-12 medium (1:1) supplemented with epidermal growth factor (20 ng/mL), hydrocortisone (500 ng/mL), insulin (10 μg/mL), 2 mM glutamine and 10% foetal calf serum.
After every 2-3 days, the cells were passaged using trypsin ethylenediamine tetra acetic acid (EDTA). The cells were seeded at a density of 10^4 cells mL-1 in flat-bottomed culture plates containing 96 wells each. After 24 h, medium was removed from the plates and the compounds in (in 0.1% DMSO) were added (in 200 μL medium to yield a final concentration of 0.1% v/v) to the wells of plates. A single compound was designated with four wells followed by incubation of plates for 96h at 37°C. After incubation, medium was removed completely from the plates followed by addition of MTT (0.4 mg/mL in medium) to each well and subsequent incubation of plates for 3h. MTT (along with the medium) was removed and DMSO (150μL) was added to each well of the culture plates, followed by vertexing and subsequent measurement of absorbance (at 540 nm) using microplate reader. The data are shown as percentage inhibition of proliferation in comparison with controls containing 0.1% DMSO. […]

[2] = system: A-549; assay: Antiproliferative assay (MTT); format: cell-based; settings: Homo sapiens, A549, A-549 (lung), read-out: Antiproliferative activity IC50 ± SEM, A-549
Description: (§2) The MTT test was employed for this investigation ([Hisham et al., 2022]; [El-Sherief et al., 2019]; [Ramadan et al., 2020]). Table 2 presents the four cancer cell lines’ median inhibitory concentration (IC50) and GI50 (average IC50) values.
(§3) The MTT test was employed for this investigation ([Hisham et al., 2022]; [El-Sherief et al., 2019]; [Ramadan et al., 2020]). The IC50 values were derived from dose-response tests. The reported data are derived from at least two independent studies, each comprising three replicates per concentration. See Supplementary Material A1 for more details.
(§4) (in 0.1% DMSO) were added (in 200 μL medium to yield a final concentration of 0.1% v/v) to the wells of plates. A single compound was designated with four wells followed by incubation of plates for 96h at 37°C. After incubation, medium was removed completely from the plates followed by addition of MTT (0.4 mg/mL in medium) to each well and subsequent incubation of plates for 3h. MTT (along with the medium) was removed and DMSO (150μL) was added to each well of the culture plates, followed by vertexing and subsequent measurement of absorbance (at 540 nm) using microplate reader. The data are shown as percentage inhibition of proliferation in comparison with controls containing 0.1% DMSO.
(§5) 4.2.1.2. Assay for antiproliferative effect […]
(§6) (10%) and 1 µg/mL each of aprotinin, leupeptin and pepstatin for 120 min. The purification was performed either at 4 °C or on ice. To record autophosphorylation level, EGFR kinase assay was carried out on the basis of DELFIA/Time-Resolved Fluorometry. The compounds were first
(§7) (1 picture or pasted object on this page, not shown here)

[3] = system: HT-29; assay: Antiproliferative assay (MTT); format: cell-based; settings: Homo sapiens, HT-29 (colon), read-out: Antiproliferative activity IC50 ± SEM, HT-29
Description: as §2, §3, §4, §5, §6, §7

[4] = system: MCF-7; assay: Antiproliferative assay (MTT); format: cell-based; settings: Homo sapiens, MCF7, MCF-7 (breast), read-out: Antiproliferative activity IC50 ± SEM, MCF-7
Description: as §2, §3, §4, §5, §6, §7

[5] = system: Panc-1; assay: Antiproliferative assay (MTT); format: cell-based; settings: Homo sapiens, Panc-1 (pancreatic), read-out: Antiproliferative activity IC50 ± SEM, Panc-1
Description: as §2, §3, §4, §5, §6, §7

[6] = system: four cancer cell lines (A-549, MCF-7, Panc-1, HT-29); assay: Antiproliferative assay, average over four cancer cell lines; format: cell-based; settings: Homo sapiens; average of the four cancer cell lines; read-out: Average IC50 (GI50)
Description: Table 2 presents the four cancer cell lines’ median inhibitory concentration (IC50) and GI50 (average IC50) values.
The IC50 values were derived from dose-response tests. The reported data are derived from at least two independent studies, each comprising three replicates per concentration. See Supplementary Material A1 for more details.

[7] = system: Bax; assay: Bax activation assay; format: cell-based, human; settings: for Bax Conc: A-549 cancer cells
Method: 4.2.7. Bax activation assay
Bring all reagents, except the human Bax-α Standard, to room temperature for at least 30 minutes prior to opening. The human Bax-α Standard solution should not be left at room temperature for more than 10 minutes. All standards, controls and samples should be run in duplicate. Refer to the Assay Layout Sheet to determine the number of wells to be used and put any remaining wells with the desiccant back into the pouch and seal the ziploc. Store unused wells at 4 °C. Pipet 100 μL of Assay Buffer into the S0 (0 pg/mL standard) wells. Pipet 100 μL of Standards #1 through #6 into the appropriate wells. Pipet 100 μL of the Samples into the appropriate wells. Tap the plate gently to mix the contents. Seal the plate and incubate at room temperature on a plate shaker for 1 hour at ~500 rpm. Empty the contents of the wells and wash by adding 400 μL of wash solution to every well. Repeat the wash 4 more times for a total of 5 washes. After the final wash, empty or aspirate the wells and firmly tap the plate on a lint free paper towel to remove any remaining wash buffer.
Pipet 100 μL of yellow Antibody into each well, except the Blank. Seal the plate and incubate at room temperature on a plate shaker for 1 hour at ~500 rpm. Empty the contents of the wells and wash by adding 400 μL of wash solution to every well. Repeat the wash 4 more times for a total of 5 washes. After the final wash, empty or aspirate the wells and firmly tap the plate on a lint free paper towel to remove any remaining wash buffer. Add 100 μL of blue Conjugate to each well, except the Blank. Seal the plate and incubate at room temperature on a plate shaker for 30 minutes […]
Pipet 100 μL of Substrate Solution into each well. Incubate for 30 minutes at room temperature on a plate shaker at ~500 rpm. Pipet 100 μL Stop Solution to each well. Blank the plate reader against the Blank wells, read the optical density at 450 nm. Calculate the average net Optical Density (OD) bound for each standard and sample by subtracting the average Blank OD from the average OD for each standard and sample. Using linear graph paper, plot the Average Net OD for each standard versus Bax concentration in each standard. Approximate a straight line through the points.
The concentration of Bax in the unknowns can be determined by interpolation. […]

[8] = system: Bcl-2; assay: Bcl-2 inhibition assay; format: cell-based, human; settings: A-549 cell line
Method: 4.2.8. Bcl-2 inhibition assay
Mix all reagents thoroughly without foaming before use. Wash the microwells twice with approximately 300 μL Wash Buffer per well with thorough aspiration of microwell contents between washes. Take caution not to scratch the surface of the microwells. After the last wash, empty the wells and tap microwell strips on absorbent pad or paper towel to remove excess Wash Buffer. Use the microwell strips immediately after washing or place upside down on a wet absorbent paper for not longer than 15 minutes. […] Add 100 μL of Sample […]
Diluent in duplicate to all standard wells and to the blank wells. Prepare standard (1:2 dilution) in duplicate ranging from 32 ng/mL to 0.5 ng/mL. Add 100 μL of Sample Diluent, in duplicate, to the blank wells. Add 80 μL of Sample Diluent, in duplicate, to the sample wells. Add 20 μL of each Sample, in duplicate, to the designated wells. Add 50 μL of diluted biotin-conjugate to all wells, including the blank wells. Cover with a plate cover and incubate at room temperature, on a microplate shaker at 100 rpm if available, for 2 hours. Remove plate cover and empty the wells.
Wash microwell strips 3 times as described in step 2. Add 100 μL of diluted Streptavidin-HRP to all wells, including the blank wells. Cover with a plate cover and incubate at room temperature, on a microplate shaker at 100 rpm if available, for 1 hour. Remove plate cover and empty the wells.
Wash microwell strips 3 times as described in step 2. Proceed to the next step. Pipette 100 μl of mixed TMB Substrate Solution to all wells, including the blanks. Incubate the microwell strips at room temperature (18° to 25°C) for about 15 minutes, if available on a rotator set at 100 rpm.
Avoid direct exposure to intense light. The point, at which the substrate reaction is stopped, is often determined by the ELISA reader. Many ELISA readers record absorbance only up to 2.0
O.D. Therefore, the color development within individual microwells must be watched by the person running the assay and the substrate reaction stopped before positive wells are no longer properly detectable. Stop the enzyme reaction by quickly pipetting 100 μL of Stop Solution into each well, including the blank wells. It is important that the Stop Solution is spread quickly and uniformly throughout the microwells to completely inactivate the enzyme. Results must be read immediately after the Stop Solution is added or within one hour i f the microwell strips are stored at 2 - 8°C in the dark. Read absorbance of each microwell on a spectrophotometer using 450 nm as the primary wavelength.

Row | IC50 [6] [µM] | melting point [°C] | Structure (SMILES) | viability at 4 days, 50 µM [1] [%] | IC50 [2] [µM] | IC50 [3] [µM] | IC50 [4] [µM] | IC50 [5] [µM] | Bax Conc [7] [pg/mL] | Bax Conc ([7]; listed as staurosporine) [pg/mL] | Bax Fold change ([7]; compared to untreated A-549 cancer cells) [fold] | Bcl-2 Conc [8] [ng/mL] | Bcl-2 Fold reduction ([8]; versus control) [fold]
1 | 0.083 | 245 to 247 | COc1ccc(-c2cc(-c3cccc(OC)c3)nc(SCc3ccccc3)n2)cc1 [Compound 21, 2-(Benzylthio)-6-(3-methoxyphenyl)-4-(4-methoxyphenyl)pyrimidine] | 89 | 0.083 ± 0.007 | 0.082 ± 0.008 | 0.086 ± 0.008 | 0.082 ± 0.008 | – | – | – | – | –
2 | – | – | C#Cc1cccc(Nc2ncnc3cc(OCCOC)c(OCCOC)cc23)c1 [Erlotinib, reference compound] | – | 0.03 ± 0.003 | 0.03 ± 0.003 | 0.04 ± 0.003 | 0.03 ± 0.003 | – | – | – | – | –
3 | – | – | CN[C@@H]1C[C@H]2O[C@@](C)([C@@H]1OC)n1c3ccccc3c3c4c(c5c6ccccc6n2c5c31)C(=O)NC4 [Staurosporine, reference compound] | – | – | – | – | – | 280 ± 5 | 280 | 35 | 1.10 | 5
